# Data taken from US20060014723A1, “Anti-parasitic uses of borinic acid complexes” (priority 2004, published 2006).
# Experiments:
# P. falciparum K1 = test: Malaria in vitro screening model (3H-hypoxanthine incorporation); assay type: cell-based, Plasmodium falciparum
# Method in brief: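 Chloroquine/pyrimethamine-resistant P. falciparum K1 in human A+ erythrocytes (0.15% parasitemia, 2.5% hematocrit) was exposed to seven 2-fold compound dilutions in hypoxanthine-free medium at 37 °C, low O2. After 48 h, 0.5 μCi ³H-hypoxanthine was added for 24 h more. IC50 was taken from sigmoidal curves as % of untreated control.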
# [1] = system: Trypanosoma cruzi Tulahuen C2C4 strain; test: Chagas disease in vitro screening model (beta-galactosidase strain in L-6 cells); assay type: cell-based
# Method in brief: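 L-6 rat myoblasts in RPMI 1640/10% FBS at 37 °C were infected with 5×10^3 lacZ-expressing T. cruzi Tulahuen C2C4 trypomastigotes. CPRG/Nonidet substrate was read at 540 nm, and IC50 came from sigmoidal curves.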
# P. Berghei = test: In vivo efficacy mouse malaria model; conditions: 2×/day
# Method: Test compounds will be compared to chloroquine, artemisinin, mefloquine as follows: NMRI mice, SPF, females, […]
# From a donor mouse with approximately 30% parasitemia, heparinized blood is taken and diluted in physiological saline to 10^8 parasitized erythrocytes per mL. An aliquot of 0.2 mL (=2×10^7 parasitized erythrocytes) of this suspension is injected intravenously (i.v.) into experimental groups of 4 mice.
# Two-to-four hours post-infection, the experimental groups are treated with a single dose by the subcutaneous or the oral route. The compounds are prepared at an appropriate concentration, as a solution or suspension containing 3% ethanol and 7% Tween 80 or in SSV (standard suspending vehicle): […]
# Twenty-four hours after the last treatment ([…]) blood smears from all animals are prepared and stained with Giemsa. Parasitemia is determined microscopically by counting 400 red blood cells (“rbcs”), for low parasitemias (<1%) up to 4,000 rbc's have to be counted. The difference between the mean value of the control group (taken as 100%) and those of the experimental groups is calculated and expressed as % Reduction where: [formula]
# Additional smears will be taken on day 5 and day 6; and parasitemia will be determined and the activity calculated. Survival time (in days) is recorded, and the mean survival time is calculated. Adverse effects are recorded. Four mice/compound and a minimum of 12 mice/study (vehicle and positive controls run concurrently) are used.
smiles,measurement,setting,value
"CC1(C)COC(c2cccc(B(Oc3cccc4cccnc34)c3cccc(C4=NC(C)(C)CO4)c3)c2)=N1 [Compound 13, Bis[3-(4,5-dihydro-4,4-dimethyloxazol-2-yl)phenyl]borinic acid 8-hydroxyquinoline ester]",P. falciparum IC50,P. falciparum K1,2 µg/mL
same,T. cruzi IC50,[1],8.7 µg/mL
same,% of Activity,"P. Berghei; 4 × 30 mg/kg, s.c.",52.31%
same,Mean Survival,"P. Berghei; 4 × 30 mg/kg, s.c.",15.3 days
same,Parasitized RBC over 100 % of Control,"P. Berghei; 4 × 30 mg/kg, s.c.",47.09%
same,Parasitized RBC over 100 Mean,"P. Berghei; 4 × 30 mg/kg, s.c.",11.9
same,% of Activity,"P. Berghei; 4 × 100 mg/kg, p.o.",81.29%
same,Mean Survival,"P. Berghei; 4 × 100 mg/kg, p.o.",12.7 days
same,Parasitized RBC over 100 % of Control,"P. Berghei; 4 × 100 mg/kg, p.o.",18.78%
same,Parasitized RBC over 100 Mean,"P. Berghei; 4 × 100 mg/kg, p.o.",4.7
"COc1ccc(B(Oc2cccc3cccnc23)c2cccc(Cl)c2)cc1OC [Compound 27, (3-Chlorophenyl)(3,4-dimethoxyphenyl)borinic acid quinolin-8-yl ester]",IC50,"P. falciparum K1; Plasmodium falciparum, K1",1.7 µg/mL
same,IC50,"[1]; Trypanosoma cruzi, TULAHUEN, L6, read-out: T. cruzi IC50",3.2 µg/mL
same,% of Activity,"P. Berghei; 4 × 100 mg/kg, s.c.",68.09%
same,Mean Survival,"P. Berghei; 4 × 100 mg/kg, s.c.",18.7 days
same,Parasitized RBC over 100 % of Control,"P. Berghei; 4 × 100 mg/kg, s.c.",31.91%
same,Parasitized RBC over 100 Mean,"P. Berghei; 4 × 100 mg/kg, s.c.",7.9
same,% of Activity,"P. Berghei; 4 × 300 mg/kg, p.o.",56.94%
same,Mean Survival,"P. Berghei; 4 × 300 mg/kg, p.o.",15.7 days
same,Parasitized RBC over 100 % of Control,"P. Berghei; 4 × 300 mg/kg, p.o.",43.08%
same,Parasitized RBC over 100 Mean,"P. Berghei; 4 × 300 mg/kg, p.o.",10.7
